Laboratory results taken from patent US8022051B2, “Composition for protection and improvement of skin, or reinforcing skin barrier function comprising phosphatidylserine” (Doosan Corporation, priority 2004, dated 2011).

Assays:
[1] = test system: skin of back region of CD-1 mouse; test: Skin differentiation promotion in the mouse (involucrin and loricrin expression); assay type: in vivo; conditions: 0.5% aqueous solution, 50 μl two times per day for two weeks; compared to negative control group; FIG. 6
Procedure: In order to examine a differentiation promotion of the skin in a mouse model, a following experiment was performed.
First, 0.5% phosphatidylserine aqueous solution was applied to the skin of a back region of the mouse (CD-1 mouse, male&female, 6-8 weeks, Charles River, USA) in an amount of 50 μl two times per a day for two weeks. After that, the skin tissue of the treated region was subject to the biopsy and then the biopsy tissue was fixed to 4% formaldehyde and sliced. Then, antibodies for involucrin and loricrin were attached and an expression amount of the protein was examined.

fibroblasts = test: Expression level of pro-collagen and MMP-1 in fibroblasts (western blot); assay type: cell-based; conditions: 20 μM, FIG. 10
Procedure: In order to examine a skin aging-suppressing efficacy of the phosphatidylserine of the invention, it was quantitatively measured the expression amounts of the pro-collagen and the matrix metalloproteinase (MMP). It was tried a protein-antibody reaction through an electrophoresis (western blot) as the quantitative method. The cultivation was performed in manners of irradiating the ultraviolet to the fibroblasts (a gift from Seoul National University, Korea) and otherwise. After that, it was treated with the phosphatidylserine (20 μM), the cell was collected to extract the protein parts. The extracted protein was dissolved in the sodium dodecyl sulfate (SDS) and then subject to the electrophoresis on the SDS-polyacrylamide gel. […] An amount of the protein was measured using the color.

[2] = test system: skin keratinocyte cell line (HaCaT); test: Protection of skin keratinocytes from ultraviolet injury (MTT assay); assay type: cell-based, human; conditions: 25 mJ/cm^2 UVB; phosphatidylserine 20 and 40 μM, WY-14643 200 μM; 24 hours; FIG. 4
[3] = test system: normal human keratinocytes; test: Differentiation promoting effect in skin keratinocytes (western blot of involucrin and transglutaminase); assay type: cell-based; conditions: phosphatidylserine 20 and 40 μM, calcium 1.2 mM, clofibrate 200 and 400 μM; 24 hours; FIG. 5
Procedure: In order to examine a differentiation promoting effect in the skin keratinocytes by the phosphatidylserine of the invention, a following experiment was performed. First, the normal human keratinocytes (a gift from Dong-guk University) cultured in the KSFM (Keratinocyte-SFM; Gibco BRL/Life Technologies, USA) were seeded to the 35 mm^2 cell culture dish in an amount of 1.5×10^5 cells/dish and then cultured for a day. Next day, the culture medium was removed and a new culture medium containing 20 and 40 μM of phosphatidylserine aqueous solution, 1.2 mM calcium aqueous solution and 200 and 400 μM of clofibrate (Sigma, USA) added thereto was added and cultured for 24 hours. Next day, in order to make sure of a differentiation of the keratinocyte, a morphology change of the cell was checked with a phase contrast microscope (Nikon, Japan) and a photograph was taken with a digital camera attached to the microscope. In addition, a western blot was performed to check the protein expression amount of involucrin and transglutaminase, which have been known as a differentiation-marker proteins of the keratinocyte peculiar to the keratin. 500 μl of a lysis buffer having 2% sodium dodecyl sulfate (SDS) added thereto wad added and the cells were collected with a cell scrapper, so that cell lysate only was obtained. […]

[4] = test system: erythema formation due to UVB on arm inside parts of examinees; test: Suppression of skin damage (erythema formation) due to ultraviolet irradiation in examinees; assay type: in vivo, human; conditions: 0.5% aqueous solution, 30 μl pre-applied; UVB 2, 3 and 4 MED; compared to the control group; FIG. 1
Procedure: In order to examine a skin damage (inflammatory response)-alleviating effect of the phosphatidylserine of the invention, which stimulation results from the ultraviolet irradiation, a following experiment was performed. At this time, the skin stimulation (inflammatory response) due to the ultraviolet irradiation was measured with an erythema formation level.
First, it was measured minimal erythma dosage (MED) in arm inside parts of examinees (28 years old or more, 10 women and men, respectively). An aqueous solution including phosphatidylserine 0.5% (aqueous solution phase containing 5% PEG 300; PEG300, Sigma, US) was previously applied to the arm inside parts of the examinees in an amount of 30 μl which were then irradiated with UVB (Sankyo Denki G15T8E sunlamps UV-B, Japan) in an intensity of 2 MED (78 mj/cm^2), 3 MED (117 mj/cm^2) and 4 MED (156 mj/cm^2) to measure suppression degrees of the erythema formation. At this time, a group for which the phosphatidylserine was not treated was used as a control group.

[5] = test system: TPA-induced ear inflammation in CD-1 mouse; test: Alleviation of skin damage (inflammatory response) due to TPA in mouse ear; assay type: in vivo; conditions: TPA 0.03%; applied 30 μl per cm^2 at 45 minutes and 4 hours after induction; phosphatidylserine 0.5%, clofibrate 1 mM, Wy14643 1 mM; FIG. 2
Procedure: In order to examine a skin damage (inflammatory response)-alleviating effect of the phosphatidylserine of the invention, which damage results from skin inflammation-inducing material, a following experiment was performed in accordance with a method used by Sheu et. al. (The Journal of Investigate Dermatology, 118, pp 94-101, 2002).
First, CD-1 mouse (male & female, 6-8 weeks, Charles River, US) was used as an experimental object. TPA (12-0-tetradecanoylphorbol-13-acetate) 0.03% (wt./vol.; in acetone) solution 10 μl, which was skin inflammation-inducing material, was treated to inner and outer parts of both ears of the experimental animal. The ear was thickened due to TPA and there occurred an inflammatory response. Then, clofibrate (1 mM) and Wy14643 (1 mM) as already-known positive control group, which are agonists of PPAR-a, and the 0.5% phosphatidylserine containing aqueous solution used as the Example 1 as an experimental material were applied to both ears in an amount of 30 μl per cm^2 at times of 45 minutes and 4 hours after the inflammation was induced. After that, the treated parts of the ears were subject to a biopsy, and the biopsy parts were fixed to 4% formaldehyde and then subject to Hematoxylene & Eosin (E&H) staining. The tissue slide stained with H&E was magnified to 100 folds to check the inflammation alleviation.

Substance: phosphatidylserine
- expression amounts of involucrin and loricrin in skin [1]: remarkably increased
- expression amount of MMP-1 (fibroblasts): decreased
- expression amount of pro-collagen (fibroblasts; with ultraviolet irradiation and otherwise): increased
- protection of skin keratinocytes from ultraviolet injury (cell survival, MTT) [2]: protected the skin keratinocytes from the ultraviolet injury
- protein expression of involucrin and transglutaminase [3]: rapidly increased the expressions of the proteins
- erythema formation [4]: considerably suppressed
- inflammation alleviation (H&E stained ear tissue) [5]: inflammation was alleviated
